PubChem BioAssay AID1918995 (Molecular Pharmacology Branch, DTP, NCI, 2023)

Tested on: 324938-238-R-J1-PDC complex spheroid growth, % test/control
Assay: Anticancer human tumor 324938-238-R-J1-PDC patient-derived bladder carcinoma cell line growth inhibition [AhR]
Details: for IC50: curve of first compound; for viability, T/C: stronger effect = lower value; active means viability on the fitted dose curve at most 10% of control; inactive means the rest
How it was run: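 Complex tumor spheroids co-cultured with HUVEC and human MSC stroma; AhR antagonists tested in combination with standard-of-care and investigational agents. Top concentration at or near clinical Cmax (else 10 microM), half-log dilutions; growth expressed as percent test/control.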

[1] = second compound 0.1 µM, first compound 0.0316 µM
[2] = second compound 0.1 µM, first compound 0.1 µM
[3] = second compound 0.1 µM, first compound 0.316 µM
[4] = second compound 0.1 µM, first compound 1 µM
[5] = second compound 0.1 µM, first compound 3.16 µM
[6] = second compound 0.1 µM, first compound 10 µM
[7] = second compound 0.316 µM, first compound 0.0316 µM
[8] = second compound 0.316 µM, first compound 0.1 µM
[9] = second compound 0.316 µM, first compound 0.316 µM
[10] = second compound 0.316 µM, first compound 1 µM
[11] = second compound 0.316 µM, first compound 3.16 µM
[12] = second compound 0.316 µM, first compound 10 µM
[13] = second compound 1 µM, first compound 0.0316 µM
[14] = second compound 1 µM, first compound 0.1 µM
[15] = second compound 1 µM, first compound 0.316 µM
[16] = second compound 1 µM, first compound 1 µM
[17] = second compound 1 µM, first compound 3.16 µM
[18] = second compound 1 µM, first compound 10 µM
[19] = second compound 3.16 µM, first compound 0.0316 µM
[20] = second compound 3.16 µM, first compound 0.1 µM
[21] = second compound 3.16 µM, first compound 0.316 µM
[22] = second compound 3.16 µM, first compound 1 µM
[23] = second compound 3.16 µM, first compound 3.16 µM
[24] = second compound 3.16 µM, first compound 10 µM
[25] = second compound 10 µM, first compound 0.0316 µM
[26] = second compound 10 µM, first compound 0.1 µM
[27] = second compound 10 µM, first compound 0.316 µM
[28] = second compound 10 µM, first compound 1 µM
[29] = second compound 10 µM, first compound 3.16 µM
[30] = second compound 10 µM, first compound 10 µM
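Further: spheroids exposed to agents for seven days before viability read.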

COc1cc(C2c3cc4c(cc3C(OC3OC5COC(C)OC5C(O)C3O)C3COC(=O)C23)OCO4)cc(OC)c1O (stereo not given) + Cc1cncc(-c2nc(NCCc3c[nH]c4ccccc34)c3ncn(C(C)C)c3n2)c1
> 10 µM: IC50 (second compound 0.1 µM) | IC50 (second compound 0.316 µM) | IC50 (second compound 1 µM) | IC50 (second compound 3.16 µM)
< 0.0316 µM: IC50 (second compound 10 µM)
inactive: viability, T/C [1] 104% | viability, T/C [2] 113% | viability, T/C [3] 96.8% | viability, T/C [4] 126% | viability, T/C [5] 106% | viability, T/C [6] 123% | viability, T/C [7] 109% | viability, T/C [8] 128% | viability, T/C [9] 109% | viability, T/C [10] 87.2% | viability, T/C [11] 95.1% | viability, T/C [12] 87.8% | viability, T/C [13] 126% | viability, T/C [14] 102% | viability, T/C [15] 84.9% | viability, T/C [16] 107% | viability, T/C [17] 103% | viability, T/C [18] 106% | viability, T/C [19] 86% | viability, T/C [20] 95.2% | viability, T/C [21] 94.2% | viability, T/C [22] 81.8% | viability, T/C [23] 106% | viability, T/C [24] 81.6%
active: viability, T/C [25] 3.73% | viability, T/C [26] 10.1% | viability, T/C [27] 6.66% | viability, T/C [28] 4% | viability, T/C [29] 6.93% | viability, T/C [30] 15%

CCN(c1cc(-c2ccc(CN3CCOCC3)cc2)cc(C(=O)NCc2c(C)cc(C)[nH]c2=O)c1C)C1CCOCC1 + Cc1cncc(-c2nc(NCCc3c[nH]c4ccccc34)c3ncn(C(C)C)c3n2)c1
> 3 µM: IC50 (second compound 0.1 µM) | IC50 (second compound 0.316 µM) | IC50 (second compound 1 µM) | IC50 (second compound 3.16 µM)
inactive: viability, T/C (second compound 0.1 µM, first compound 0.00949 µM) 106% | viability, T/C (second compound 0.1 µM, first compound 0.03 µM) 135% | viability, T/C (second compound 0.1 µM, first compound 0.0949 µM) 123% | viability, T/C (second compound 0.1 µM, first compound 0.3 µM) 104% | viability, T/C (second compound 0.1 µM, first compound 0.949 µM) 106% | viability, T/C (second compound 0.1 µM, first compound 3 µM) 156% | viability, T/C (second compound 0.316 µM, first compound 0.00949 µM) 94.5% | viability, T/C (second compound 0.316 µM, first compound 0.03 µM) 89.3% | viability, T/C (second compound 0.316 µM, first compound 0.0949 µM) 112% | viability, T/C (second compound 0.316 µM, first compound 0.3 µM) 105% | viability, T/C (second compound 0.316 µM, first compound 0.949 µM) 109% | viability, T/C (second compound 0.316 µM, first compound 3 µM) 112% | viability, T/C (second compound 1 µM, first compound 0.00949 µM) 83.9% | viability, T/C (second compound 1 µM, first compound 0.03 µM) 118% | viability, T/C (second compound 1 µM, first compound 0.0949 µM) 117% | viability, T/C (second compound 1 µM, first compound 0.3 µM) 109% | viability, T/C (second compound 1 µM, first compound 0.949 µM) 94% | viability, T/C (second compound 1 µM, first compound 3 µM) 108% | viability, T/C (second compound 3.16 µM, first compound 0.00949 µM) 102% | viability, T/C (second compound 3.16 µM, first compound 0.03 µM) 102% | viability, T/C (second compound 3.16 µM, first compound 0.0949 µM) 124% | viability, T/C (second compound 3.16 µM, first compound 0.3 µM) 86.3% | viability, T/C (second compound 3.16 µM, first compound 0.949 µM) 110% | viability, T/C (second compound 3.16 µM, first compound 3 µM) 93.8% | viability, T/C (second compound 10 µM, first compound 0.00949 µM) 12.1% | viability, T/C (second compound 10 µM, first compound 0.03 µM) 15.5% | viability, T/C (second compound 10 µM, first compound 0.0949 µM) 15.5% | viability, T/C (second compound 10 µM, first compound 0.3 µM) 17.9% | viability, T/C (second compound 10 µM, first compound 0.949 µM) 8.72% | viability, T/C (second compound 10 µM, first compound 3 µM) 7.72%
< 0.00949 µM: IC50 (second compound 10 µM)

CC(C)c1c(-c2ccccc2)nc2c(C#N)c[nH]n2c1=O + Cc1cncc(-c2nc(NCCc3c[nH]c4ccccc34)c3ncn(C(C)C)c3n2)c1
> 10 µM: IC50 (second compound 0.1 µM) | IC50 (second compound 0.316 µM) | IC50 (second compound 1 µM) | IC50 (second compound 3.16 µM)
< 0.0316 µM: IC50 (second compound 10 µM)
inactive: viability, T/C [1] 127% | viability, T/C [2] 85.5% | viability, T/C [3] 95.3% | viability, T/C [4] 63.9% | viability, T/C [5] 69.6% | viability, T/C [6] 146% | viability, T/C [7] 124% | viability, T/C [8] 129% | viability, T/C [9] 89.1% | viability, T/C [10] 102% | viability, T/C [11] 113% | viability, T/C [12] 96.4% | viability, T/C [13] 119% | viability, T/C [14] 85.3% | viability, T/C [15] 83.5% | viability, T/C [16] 90.8% | viability, T/C [17] 130% | viability, T/C [18] 102% | viability, T/C [19] 101% | viability, T/C [20] 68.8% | viability, T/C [21] 76.8% | viability, T/C [22] 63.8% | viability, T/C [23] 75.8% | viability, T/C [24] 102%
active: viability, T/C [25] 2.26% | viability, T/C [26] 3.22% | viability, T/C [27] 2.43% | viability, T/C [28] 3.77% | viability, T/C [29] 3.8% | viability, T/C [30] 1.68%

Nc1ncn(C2CC(O)C(CO)O2)c(=O)n1 (stereo not given) + Cc1ccccc1N=Nc1ccc(NC(=O)c2ccnn2C)c(C)c1
inactive: viability, T/C (second compound 0.1 µM, first compound 0.00316 µM) 90.1% | viability, T/C (second compound 0.1 µM, first compound 0.01 µM) 94.7% | viability, T/C [1] 97.8% | viability, T/C [2] 83.3% | viability, T/C [3] 71.2% | viability, T/C [4] 65.3% | viability, T/C (second compound 0.316 µM, first compound 0.00316 µM) 81.9% | viability, T/C (second compound 0.316 µM, first compound 0.01 µM) 87.9% | viability, T/C [7] 89.4% | viability, T/C [8] 78.5% | viability, T/C [9] 69.7% | viability, T/C [10] 64.8% | viability, T/C (second compound 1 µM, first compound 0.00316 µM) 85.3% | viability, T/C (second compound 1 µM, first compound 0.01 µM) 83% | viability, T/C [13] 89.5% | viability, T/C [14] 74.7% | viability, T/C [15] 82.3% | viability, T/C [16] 62% | viability, T/C (second compound 3.16 µM, first compound 0.00316 µM) 74.9% | viability, T/C (second compound 3.16 µM, first compound 0.01 µM) 78.7% | viability, T/C [19] 77.2% | viability, T/C [20] 68.7% | viability, T/C [21] 70% | viability, T/C [22] 60.9% | viability, T/C (second compound 10 µM, first compound 0.00316 µM) 77.9% | viability, T/C (second compound 10 µM, first compound 0.01 µM) 76.1% | viability, T/C [25] 78.6% | viability, T/C [26] 73.6% | viability, T/C [27] 73.4% | viability, T/C [28] 60.7%
> 1 µM: IC50 (second compound 0.1 µM) | IC50 (second compound 0.316 µM) | IC50 (second compound 1 µM) | IC50 (second compound 3.16 µM) | IC50 (second compound 10 µM)
